Measured values: patent US7556806B2, “Carbohydrate-based synthetic vaccines for HIV” (University of Maryland Biotechnology Institute, priority 2002, dated 2009)

Test system: MAb 2G12 binding to HIV-1IIIB gp120
Assay: Competitive ELISA: inhibition of 2G12 binding to immobilized gp120 by carbohydrate antigens
Design: species or system human
Details: for Relative Affinity, Molar basis / Relative Affinity, Valency-corrected: Table 1; for Relative Affinity, Molar basis: from IC50, relative to Man9GlcNAc2Asn = 1.0; for Relative Affinity, Valency-corrected: from IC50, relative to Man9GlcNAc2Asn = 1.0, per oligosaccharide subunit; for affinity for 2G12 binding, Man9GlcNAc compared with Man9GlcNAc2Asn: result in words
Method: Competitive ELISAs were performed to determine the relative inhibition potency of various carbohydrate antigens against the binding of 2G12 to gp120. Microtiter plates were coated with human cell line 293-expressed HIV-1IIIB gp120 (100 ng/ml) overnight at 4° C. After washing, non-specific binding was blocked with 5% BSA in PBS for 1 h at room temperature. The plates were then washed three times with 0.1% Tween-20/PBS. Serial dilutions (1:2) of various carbohydrate antigens were mixed with an equal volume of MAb 2G12 (fixed final concentration of 5 ng/ml) and added to the plates. The plates were incubated for 1 h at 37° C. and washed with washing buffer. To the plates was added a 100-μl solution of 1:3000 diluted horseradish peroxidase-conjugated goat anti-human IgG in 0.5% BSA/PBS. After incubation for 1 h at 37° C., the plates were washed again and a 100-μl solution of 3,3′,5,5′-tetramethyl benzidine (TMB) was added. Color was allowed to develop for 5 min, and the color reaction was quenched through adding a 100-μl solution of 0.5 M H2SO4 to each well. The optical density was then measured at 450 nm.
The binding affinity of the high-mannose oligosaccharides was examined by competitive inhibition of 2G12 binding to immobilized gp120, as shown in FIG. 14.
The synthetic Man9-clusters were examined for competitive inhibition of 2G12 binding to immobilized gp120 (FIG. 16).

| Compound | Relative Affinity, Molar basis | Relative Affinity, Valency-corrected | affinity for 2G12 binding, Man9GlcNAc compared with Man9GlcNAc2Asn | fold more effective in inhibition of 2G12 binding than Man5GlcNAc (on a molar basis, versus Man5GlcNAc) [fold] | fold more effective in inhibition of 2G12 binding than Man6GlcNAc (on a molar basis, versus Man6GlcNAc) [fold] |
| --- | --- | --- | --- | --- | --- |
| Man6GlcNAc | 0.012 | 0.012 | – | – | – |
| CC(=O)N[C@H]1C(O)O[C@H](CO)[C@@H](O[C@@H]2O[C@H](CO[C@H]3O[C@H](CO[C@H]4O[C@H](CO)[C@@H](O)[C@H](O)[C@@H]4O)[C@@H](O)[C@H](O[C@H]4O[C@H](CO)[C@@H](O)[C@H](O)[C@@H]4O)[C@@H]3O)[C@@H](O)[C@H](O[C@H]3O[C@H](CO)[C@@H](O)[C@H](O)[C@@H]3O)[C@@H]2O)[C@@H]1O (stereo partly drawn) [Man5GlcNAc] | 0.004 | 0.004 | – | – | – |
| CC(=O)N[C@@H]1[C@@H](O)[C@H](O[C@@H]2O[C@H](CO)[C@@H](O[C@@H]3O[C@H](CO[C@H]4O[C@H](CO[C@H]5O[C@H](CO)[C@@H](O)[C@H](O)[C@@H]5O[C@H]5O[C@H](CO)[C@@H](O)[C@H](O)[C@@H]5O)[C@@H](O)[C@H](O[C@H]5O[C@H](CO)[C@@H](O)[C@H](O)[C@@H]5O[C@H]5O[C@H](CO)[C@@H](O)[C@H](O)[C@@H]5O)[C@@H]4O)[C@@H](O)[C@H](O[C@H]4O[C@H](CO)[C@@H](O)[C@H](O)[C@@H]4O[C@H]4O[C@H](CO)[C@@H](O)[C@H](O)[C@@H]4O[C@H]4O[C@H](CO)[C@@H](O)[C@H](O)[C@@H]4O)[C@@H]3O)[C@H](O)[C@H]2NC(C)=O)[C@@H](CO)O[C@H]1NC(=O)C[C@H](N)C(=O)O [Man9GlcNAc2Asn] | 1.0 | 1.0 | essentially the same affinity | – | – |
| CC(=O)N[C@H]1C(O)O[C@H](CO)[C@@H](O[C@@H]2O[C@H](CO[C@H]3O[C@H](CO[C@H]4O[C@H](CO)[C@@H](O)[C@H](O)[C@@H]4O[C@H]4O[C@H](CO)[C@@H](O)[C@H](O)[C@@H]4O)[C@@H](O)[C@H](O[C@H]4O[C@H](CO)[C@@H](O)[C@H](O)[C@@H]4O[C@H]4O[C@H](CO)[C@@H](O)[C@H](O)[C@@H]4O)[C@@H]3O)[C@@H](O)[C@H](O[C@H]3O[C@H](CO)[C@@H](O)[C@H](O)[C@@H]3O[C@H]3O[C@H](CO)[C@@H](O)[C@H](O)[C@@H]3O[C@H]3O[C@H](CO)[C@@H](O)[C@H](O)[C@@H]3O)[C@@H]2O)[C@@H]1O (stereo partly drawn) [Man9GlcNAc] | 0.84 | 0.84 | essentially the same affinity | 244 | 85 |
